From patent US10508085B2, “Compounds and methods for IDO and TDO modulation, and indications therefor” (Plexxikon Inc., priority 2016, dated 2019)
Read-outs that look alike come from different tables or passages of the source.

What was measured:
[1] = target: T1, Human Indoleamine 2,3-dioxygenase (IDO) (Homo sapiens, UniProt P14902); assay: Human IDO enzymatic assay (kynurenine level); assay type: biochemical; conditions: 6 nM IDO, 10 μM L-Trp; geometric mean; read-out: IDO1 GMean: IC50 (μM) (Biochemical Assay)
T1 construct: His tag (N); made in house; host or cells: E. coli
T1 sequence (P14902 whole entry): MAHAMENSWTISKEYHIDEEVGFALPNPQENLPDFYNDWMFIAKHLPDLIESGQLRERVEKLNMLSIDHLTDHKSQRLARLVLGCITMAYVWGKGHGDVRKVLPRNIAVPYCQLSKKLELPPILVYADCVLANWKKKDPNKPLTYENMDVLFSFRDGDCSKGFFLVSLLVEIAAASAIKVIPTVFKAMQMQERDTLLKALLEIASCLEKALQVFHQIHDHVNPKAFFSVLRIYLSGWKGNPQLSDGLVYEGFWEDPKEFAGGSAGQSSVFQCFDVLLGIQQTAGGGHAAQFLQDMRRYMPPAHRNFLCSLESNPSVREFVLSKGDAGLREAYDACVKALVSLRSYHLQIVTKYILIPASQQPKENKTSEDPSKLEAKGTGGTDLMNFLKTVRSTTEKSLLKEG
Summary of the method: (§1)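 Compound is mixed with His-tagged enzyme from E. coli in pH 6.5 phosphate buffer containing ascorbate, methylene blue and catalase, at room temperature. IDO uses 6 nM enzyme and 10 μM Trp for 20 min. TDO uses 1 nM enzyme and 350 μM Trp for 70 min. TCA stops the reaction, and IC50 is derived from kynurenine levels.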

[2] = target: T2, Human Tryptophan 2,3-dioxygenase (TDO) (Homo sapiens, UniProt P48775); assay: Human TDO enzymatic assay (kynurenine level); assay type: biochemical; conditions: 1 nM TDO, 350 μM L-Trp; geometric mean; read-out: TDO GMean: IC50 (μM) (Biochemical Assay)
T2 construct: His tag (N); made in house; host or cells: E. coli
T2 sequence (P48775 whole entry): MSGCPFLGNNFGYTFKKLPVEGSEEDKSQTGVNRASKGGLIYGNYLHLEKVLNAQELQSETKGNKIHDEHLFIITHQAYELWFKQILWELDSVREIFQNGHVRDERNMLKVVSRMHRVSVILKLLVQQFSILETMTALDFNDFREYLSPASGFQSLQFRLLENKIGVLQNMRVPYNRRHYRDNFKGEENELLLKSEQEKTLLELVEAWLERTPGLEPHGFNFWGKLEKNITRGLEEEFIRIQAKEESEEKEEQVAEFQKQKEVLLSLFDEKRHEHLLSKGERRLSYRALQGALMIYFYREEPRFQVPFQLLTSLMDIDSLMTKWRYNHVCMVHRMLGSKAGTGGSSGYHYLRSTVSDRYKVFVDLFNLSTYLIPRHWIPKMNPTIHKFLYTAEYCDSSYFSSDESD
Summary of the method: as §1

[3] = target: T3, human IDO (IDO1-expressing HEK293 cells) (Homo sapiens, UniProt P14902); assay: Cell based kynurenine assay, IDO1-expressing HEK293 cell clones; conditions: IDO1-expressing HEK293 cells, geometric mean, read-out: HEK293 IDO1 Kynurenine GMean IC50 (μM) (Cellular Assay)
T3 construct: expressed in transfected cells
T3 sequence (P14902 whole entry): as the sequence (P14902 whole entry) above
Summary of the method: (§2)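 HEK293 clones stably expressing human IDO1 or human TDO (CMV promoter), 2.5×10^4 cells/well, given serial compound dilutions for 24 h. Kynurenine measured in supernatant; inhibition relative to cell/0.2% DMSO and media-only controls. IC50 by nonlinear regression.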

[4] = target: T4, human TDO (TDO-expressing HEK293 cells) (Homo sapiens, UniProt P48775); assay: Cell based kynurenine assay, TDO-expressing HEK293 cell clones; conditions: TDO-expressing HEK293 cells, geometric mean, read-out: HEK293 TDO Kynurenine GMean IC50 (μM) (Cellular Assay)
T4 construct: expressed in transfected cells
T4 sequence (P48775 whole entry): as the sequence (P48775 whole entry) above
Summary of the method: as §2

O=C(C1CC1)N1CCC(C(F)(F)C(O)c2cc(Cl)cc3cn[nH]c23)CC1 (centres unmarked) [Compound P-0143, (4-(2-(5-chloro-1H-indazol-7-yl)-1,1-difluoro-2-hydroxyethyl)piperidin-1-yl)(cyclopropyl)methanone]
IC50 [1]: 0.0001 to 10 µM | IC50 [2]: 0.0001 to 10 µM | IC50 ([3]; 24 hours incubation): 0.0001 to 10 µM | IC50 ([4]; 24 hours incubation): 0.0001 to 10 µM

O[C@@H](c1cc(Cl)cc2cn[nH]c12)C12CCC(CC1)CC2 [Compound P-0382, (R)-bicyclo[2.2.2] octan-1-yl(5-chloro-1H-indazol-7-yl)methanol]
IC50 [1]: 0.0001 to 10 µM | IC50 [2]: > 200 µM | IC50 ([3]; 24 hours incubation): 0.0001 to 10 µM | IC50 ([4]; 24 hours incubation): > 10 µM

CC1(C(O)c2cc3c(c4cn[nH]c24)CCCC3)CCCCC1 (centres unmarked) [Compound P-0050, (1-methylcyclohexyl)(6,7,8,9-tetrahydro-3H-benzo[e]indazol-4-yl)methanol]
IC50 [1]: 0.0001 to 10 µM | IC50 [2]: 0.0001 to 10 µM | IC50 ([3]; 24 hours incubation): 0.0001 to 10 µM | IC50 ([4]; 24 hours incubation): > 10 µM

CS(=O)(=O)N1CC(C(O)c2cc(Cl)cc3cn[nH]c23)C1 (centres unmarked) [Compound P-0226, (5-chloro-1H-indazol-7-yl)(1-(methylsulfonyl)azetidin-3-yl)methanol]
IC50 [1]: 0.0001 to 10 µM | IC50 [2]: 0.0001 to 10 µM | IC50 ([3]; 24 hours incubation): 0.0001 to 10 µM | IC50 ([4]; 24 hours incubation): > 10 µM

COC12CCC(C(O)c3c(F)c(Cl)cc4cn[nH]c34)(CC1)CC2 (centres unmarked) [Compound P-0137, (5-chloro-6-fluoro-1H-indazol-7-yl)(4-methoxybicyclo[2.2.2]octan-1-yl)methanol]
IC50 [1]: 0.0001 to 10 µM | IC50 [2]: 0.0001 to 10 µM | IC50 ([3]; 24 hours incubation): 0.0001 to 10 µM | IC50 ([4]; 24 hours incubation): 0.0001 to 10 µM

CC(C)CC(=O)N1CCC(C(C)(C)[C@H](O)c2cc(Cl)cc3cn[nH]c23)CC1 [Compound P-0545, (S)-1-(4-(1-(5-chloro-1H-indazol-7-yl)-1-hydroxy-2-methylpropan-2-yl)piperidin-1-y1)-3-methylbutan-1-one]
IC50 [1]: 0.0001 to 10 µM | IC50 [2]: 0.0001 to 10 µM | IC50 ([3]; 24 hours): 0.0001 to 10 µM | IC50 ([4]; 24 hours): 0.0001 to 10 µM

CC(C)(C1CCN(C(=O)NC(=O)c2ccccc2)CC1)[C@H](O)c1c(F)c(Cl)cc2cn[nH]c12 [Compound P-0514, (S)-N-benzoyl-4-(1-(5-chloro-6-fluoro-1H-indazol-7-yl)-1-hydroxy-2-methylpropan-2-yl)piperidine-1-carboxamide]
IC50 [1]: 0.0001 to 10 µM | IC50 [2]: 0.0001 to 10 µM | IC50 ([3]; 24 hours): 0.0001 to 10 µM | IC50 ([4]; 24 hours): 0.0001 to 10 µM

O=C(CC1CCS(=O)(=O)CC1)N1CCC(C(F)(F)C(O)c2cc(Cl)cc3cn[nH]c23)CC1 (centres unmarked) [Compound P-0481, 1-(4-(2-(5-chloro-1H-indazol-7-yl)-1,1-difluoro-2-hydroxyethyl)piperidin-1-yl)-2-(1,1-dioxidotetrahydro-2H-thiopyran-4-yl)ethan-1-one]
IC50 [1]: 0.0001 to 10 µM | IC50 [2]: 0.0001 to 10 µM | IC50 ([3]; 24 hours): 0.0001 to 10 µM | IC50 ([4]; 24 hours): > 10 µM

CC(C)(C1CCN(S(C)(=O)=O)CC1)C(O)c1c(F)c(Cl)cc2cn[nH]c12 (centres unmarked) [Compound P-0261, 1-(5-chloro-6-fluoro-1H-indazol-7-yl)-2-methyl-2-(1-(methylsulfonyl)piperidin-4-yl)propan-1-ol]
IC50 [1]: 0.0001 to 10 µM | IC50 [2]: 0.0001 to 10 µM | IC50 ([3]; 24 hours incubation): 0.0001 to 10 µM | IC50 ([4]; 24 hours incubation): 0.0001 to 10 µM

CC(C)(C1CCN(C(=O)Nc2ccccn2)CC1)C(O)c1cc(Cl)cc2cn[nH]c12 (centres unmarked) [Compound P-0389, 4-(1-(5-chloro-1H-indazol-7-yl)-1-hydroxy-2-methylpropan-2-yl)-N-(pyridin-2-yl)piperidine-1-carboxamide]
IC50 [1]: 0.0001 to 10 µM | IC50 [2]: 0.0001 to 10 µM | IC50 ([3]; 24 hours incubation): 0.0001 to 10 µM | IC50 ([4]; 24 hours incubation): 0.0001 to 10 µM

CC(C)(C1CCN(C(=O)Nc2ccc(F)nc2)CC1)C(O)c1cc(Cl)cc2cn[nH]c12 (centres unmarked) [Compound P-0558, 4-(1-(5-chloro-1H-indazol-7-yl)-1-hydroxy-2-methylpropan-2-yl)-N-(6-fluoropyridin-3-yl)piperidine-1-carboxamide]
IC50 [1]: 0.0001 to 10 µM | IC50 [2]: 0.0001 to 10 µM | IC50 ([3]; 24 hours): 0.0001 to 10 µM | IC50 ([4]; 24 hours): 0.0001 to 10 µM
